Activity calls are given as the source filed them. The rule behind the calls is not given here.
Key:
Canis familiaris [1] = assay: Induction of overt behavior in dog at 2 mg/kg, iv; assay type: functional, organism-based; design: dose 2 mg/kg; details: Canis lupus familiaris
Mus musculus [2] = assay: Analgesic activity in mouse at 20 mg/kg, sc by hot-plate method; assay type: functional, organism-based; design: dose 20 mg/kg
Canis familiaris [3] = assay: Induction of overt behavior in dog at 0.50 mg/kg, iv; assay type: functional, organism-based; design: dose 0.5 mg/kg; details: Canis lupus familiaris
Canis familiaris [4] = assay: Induction of overt behavior in dog at 1 mg/kg, iv; assay type: functional, organism-based; design: dose 1 mg/kg; details: Canis lupus familiaris
Canis familiaris [5] = assay: Induction of overt behavior in dog at 0.05 mg/kg, iv; assay type: functional, organism-based; design: dose 0.05 mg/kg; details: Canis lupus familiaris
Canis familiaris [6] = assay: Induction of overt behavior in dog at 0.01 mg/kg, iv; assay type: functional, organism-based; design: dose 0.01 mg/kg; details: Canis lupus familiaris
Canis familiaris [7] = assay: Induction of overt behavior in dog at 0.10 mg/kg, iv; assay type: functional, organism-based; design: dose 0.1 mg/kg; details: Canis lupus familiaris
Mus musculus [8] = assay: Analgesic activity in sc dosed mouse by hot-plate method; assay type: functional
Canis familiaris [9] = assay: Induction of overt behavior in dog at 4 mg/kg, iv; assay type: functional, organism-based; design: dose 4 mg/kg; details: Canis lupus familiaris
Mus musculus [10] = assay: Analgesic activity in mouse at 50 mg/kg, sc by hot-plate method; assay type: functional, organism-based; design: dose 50 mg/kg
Canis familiaris [11] = assay: Induction of overt behavior in dog at 0.20 mg/kg, iv; assay type: functional, organism-based; design: dose 0.2 mg/kg; details: Canis lupus familiaris
Canis familiaris [12] = assay: Induction of overt behavior in dog at 3 mg/kg, iv; assay type: functional, organism-based; design: dose 3 mg/kg; details: Canis lupus familiaris
Canis familiaris [13] = assay: Induction of overt behavior in dog at 0.80 mg/kg, iv; assay type: functional, organism-based; design: dose 0.8 mg/kg; details: Canis lupus familiaris
Canis familiaris [14] = assay: Induction of overt behavior in dog at 0.40 mg/kg, iv; assay type: functional, organism-based; design: dose 0.4 mg/kg; details: Canis lupus familiaris

## CCCCCc1cc(O)c2c(c1)OC(C)(C)[C@@H]1CC=C(CN)C[C@@H]21
Canis familiaris [1]
  Activity: Active
Mus musculus [2]
  Activity: inactive
Canis familiaris [3]
  Activity: inactive
Canis familiaris [4]
  Activity: inactive

## CCCCCc1cc(O)c2c(c1)OC(C)(C)[C@@H]1CCC(CO)=C[C@@H]21
Canis familiaris [5]
  Activity: Active
Canis familiaris [6]
  Activity: Active
Canis familiaris [7]
  Activity: Active
Mus musculus [8]
  ED50: 1.9 mg/kg

## CCCCCc1cc(O)c2c(c1)OC(C)(C)[C@@H]1CC=C(CNC(C)=O)C[C@@H]21
Mus musculus [2]
  Activity: inactive

## CCCCCc1cc(O)c2c(c1)OC(C)(C)[C@@H]1CC/C(=N/O)C[C@@H]21
Mus musculus [2]
  Activity: inactive

## COc1ccc2c3c1O[C@H]1[C@@H](O)C=C[C@H]4[C@@H](C2)N(C)CC[C@@]341.Cl
Mus musculus [8]
  ED50: 7.5 mg/kg

## CCCCCc1cc(O)c2c(c1)OC(C)(C)[C@@H]1CC=C(COC)C[C@@H]21
Canis familiaris [1]
  Activity: Active
Canis familiaris [9]
  Activity: Active
Mus musculus [8]
  ED50: 8.2 mg/kg

## CCCCCc1cc(O)c2c(c1)OC(C)(C)[C@@H]1CC=C(CC)CC21 (mixture of isomers)
Canis familiaris [1]
  Activity: Active
Mus musculus [10]
  Activity: inactive
Canis familiaris [11]
  Activity: inactive
Canis familiaris [12]
  Activity: Active
Canis familiaris [13]
  Activity: Active
Canis familiaris [14]
  Activity: inactive
Canis familiaris [4]
  Activity: Active

## CN1CC[C@]23c4c5ccc(O)c4O[C@H]2[C@@H](O)C=C[C@H]3[C@H]1C5.Cl [MORPHINE HYDROCHLORIDE]
Mus musculus [8]
  ED50: 1.2 mg/kg

## CCCCCc1cc(O)c2c(c1)OC(C)(C)[C@@H]1CC=C(C)C[C@@H]21 [DELTA-8-TETRAHYDROCANNABINOL]
Canis familiaris [11]
  Activity: inactive
Canis familiaris [14]
  Activity: Active
Canis familiaris [7]
  Activity: inactive
Mus musculus [8]
  ED50: 8.8 mg/kg

Reference: ChEMBL document CHEMBL3227930, “Some 11-substituted tetrahydrocannabinols. Synthesis and comparison with the potent cannabinoid metabolites 11-hydroxytetrahydrocannabinols” (1979)
